Data reported in the PolyMetriX glass transition set.
± gives the standard deviation of the reports.

`*CCN(*)C(=O)CCC(=O)OC` (repeat unit) showed a glass transition temperature of 31.00 °C. For `*CC(*)c1cccc2c1OCO2` (repeat unit), the glass transition temperature was 119.00 °C. `*c1ccc2c(c1)C(=O)N(c1ccccc1Oc1ccc(N3C(=O)c4ccc(C(*)(C(F)(F)F)C(F)(F)F)cc4C3=O)cc1)C2=O` (repeat unit) showed a glass transition temperature of 276.00 °C. Molecule `*c1cccc(-c2cc(C(=O)Nc3ccc(OC(=O)c4cc(OCCCCCCCCCCCC)c(OCCCCCCCCCCCC)c(OCCCCCCCCCCCC)c4)cc3)cc(-c3cccc(N4C(=O)c5ccc(S(=O)(=O)c6ccc7c(c6)C(=O)N(*)C7=O)cc5C4=O)c3)c2)c1` (repeat unit) has a glass transition temperature of 268.00 °C. With `*CCC(C)(C)CC(C)CNC(=O)c1ccc(C(=O)N*)cc1` (repeat unit) the glass transition temperature was 148.00 °C. With `*c1ccc(Oc2ccc(Oc3ccc(Oc4ccc(-c5nc6ccc(-c7ccc8nc(*)c(-c9ccccc9)nc8c7)cc6nc5-c5ccccc5)cc4)cc3)cc2)cc1` (repeat unit) the glass transition temperature was 263.00 °C. `*CC(*)c1ccccc1C(=O)OCC` (repeat unit) showed a glass transition temperature of 118.00 °C. `*CC(O)COc1ccc(C(C)(C)c2ccc(OCC(O)COc3cccc(O*)c3)cc2)cc1` (repeat unit) showed a glass transition temperature of 83.00 °C. Work on `*Oc1cc(Oc2ccc(C(C)(C)c3ccc(*)cc3)cc2)cc(C(=O)Oc2ccc(/N=N/c3ccc(C#N)cc3)cc2)c1` (repeat unit) yielded a glass transition temperature of 163.00 °C. `*/C=C(/*)c1cccc[c]1[Ge]([CH3])([CH3])[CH3]` (repeat unit) gave a glass transition temperature of 180.00 °C. `*/C=C/C1CC(*)C(C(=O)OC)C1C(=O)OC` (repeat unit) gave a glass transition temperature of 77.30 °C. Molecule `*CCCP(C)(=O)CCCNC(=O)CCCCC(=O)N*` (repeat unit) has a glass transition temperature of 33.00 °C. With `*Oc1ccc(OC(=O)c2ccc(C(*)=O)cc2Oc2ccc3ccccc3c2)cc1` (repeat unit) the glass transition temperature was 102.00 °C. `*CC1CC(*)C(OC(=O)CCCCCCCCCCOc2ccc(-c3ccc(C#N)cc3)cc2)C1OC(=O)CCCCCCCCCCOc1ccc(-c2ccc(C#N)cc2)cc1` (repeat unit) showed a glass transition temperature of 14.50 °C. Work on `*/N=N/c1ccc(Nc2ccc(C(=O)c3ccc(C(=O)c4ccc(Nc5ccc(*)cc5)cc4)cc3)cc2)cc1` (repeat unit) yielded a glass transition temperature of 203.00 °C. With `*CC(*)(C)C(=O)OCCCCCCCCCCOc1ccc(OC(=O)c2ccc(-c3ccc(OC)cc3)cc2)cc1` (repeat unit) the glass transition temperature was 57.00 °C. Molecule `*Nc1ccc(C2(c3ccc(NC(=O)c4cc(C(*)=O)cc(C(C)(C)C)c4)cc3)c3ccccc3-c3ccccc32)cc1` (repeat unit) has a glass transition temperature of 284.00 °C. For `*CC(F)(F)C(F)(F)C(F)(F)COC(=O)c1cccc(C(=O)O*)c1` (repeat unit), the glass transition temperature was 23.50 °C. `*OC(=O)Oc1ccc(S(=O)(=O)c2ccc(OC(=O)OC3CC4CC(*)CC(C3)O4)cc2)cc1` (repeat unit) showed a glass transition temperature of 184.00 °C. Molecule `*c1ccc(OC(=O)c2cccc(C(=O)Oc3ccc(C4(*)C(=O)Nc5ccccc54)cc3)c2)cc1` (repeat unit) has a glass transition temperature of 256.00 °C. With `*SCC(=O)N/N=C/c1ccc(OCCCCCCCCCCOc2ccc(/C=N/NC(=O)CSc3nnc(*)s3)cc2)cc1` (repeat unit) the glass transition temperature was 117.00 °C. Work on `*CCCCCCCCCCCCC(c1ccc(O)cc1)C(*)c1ccc(O)cc1C` (repeat unit) yielded a glass transition temperature of -1.00 °C. `*CCCCCC(=O)Oc1ccc(C(C)(C)c2ccc(OC(=O)c3ccc4c(c3)C(=O)N(*)C4=O)cc2)cc1` (repeat unit) gave a glass transition temperature of 110.00 °C. Work on `*C(=O)Nc1ccc(C2(c3ccc(NC(=O)c4ccc5c(c4)C(=O)N(c4ccc(Sc6ccc(Oc7ccc(Sc8ccc(N9C(=O)c%10ccc(*)cc%10C9=O)cc8)cc7)cc6)cc4)C5=O)cc3)c3ccccc3-c3ccccc32)cc1` (repeat unit) yielded a glass transition temperature of 298.00 °C. In the case of `*/C=C/C1CC(*)C(C(=O)OCCCCCCCCOc2ccc(/C=C/c3ccc([N+](=O)[O-])cc3)cc2)C1` (repeat unit), the glass transition temperature is reported as 51.00 °C. For `*CC(Cc1cccc2ccccc12)C[Si](*)(C)C` (repeat unit), the glass transition temperature was 17.00 °C. For `*c1ccc(Oc2ccc(C(c3ccc(Oc4ccc(N5C(=O)c6ccc(Oc7ccc8c(c7)C(=O)N(*)C8=O)cc6C5=O)cc4)cc3)(C(F)(F)F)C(F)(F)F)cc2)cc1` (repeat unit), the glass transition temperature was 264.00 °C. Work on `*C(=O)c1cccc(C(=O)N(*)c2ccccc2)c1` (repeat unit) yielded a glass transition temperature of 148.00 °C. For `*CC*` (repeat unit) [Poly(ethylene)], the glass transition temperature was -54.00 ± 89 °C. In the case of `*Oc1c(C)cc(C2(c3cc(C)c(Oc4ccc(C(=O)c5cccc(C(=O)c6ccc(*)cc6)c5)cc4)c(C)c3)c3ccccc3-c3ccccc32)cc1C` (repeat unit), the glass transition temperature is reported as 229.00 °C. In the case of `*Nc1ccc(C2(c3ccc(NC(=O)c4cccc(C(*)=O)c4)cc3)c3ccccc3-c3ccccc32)cc1` (repeat unit), the glass transition temperature is reported as 277.00 °C. `*Oc1ccc(OC(=O)c2ccc(C(*)=O)cc2Sc2ccccc2)cc1-c1ccccc1` (repeat unit) gave a glass transition temperature of 130.00 °C. `*c1ccc([Si](c2ccccc2)(c2ccccc2)c2ccc(-c3nnc(-c4cncc(-c5nnc(*)o5)c4)o3)cc2)cc1` (repeat unit) showed a glass transition temperature of 272.00 °C. In the case of `*c1ccc(Oc2ccc(-c3nc4ccc(Oc5ccc(N6C(=O)c7ccc(C(c8ccc9c(c8)C(=O)N(c8ccc(Oc%10ccc%11nc(*)c(-c%12ccccc%12)nc%11c%10)cc8)C9=O)(C(F)(F)F)C(F)(F)F)cc7C6=O)cc5)cc4nc3-c3ccccc3)cc2)cc1` (repeat unit), the glass transition temperature is reported as 267.00 °C. In the case of `*c1ccc([Si](c2ccccc2)(c2ccccc2)c2ccc(-c3nnc(-c4ccc(-c5nnc(*)o5)nc4)o3)cc2)cc1` (repeat unit), the glass transition temperature is reported as 272.00 °C. `*c1ccc(Oc2cccc(Oc3ccc(N4C(=O)c5ccc(Oc6ccc(C(=O)c7ccc(Oc8ccc9c(c8)C(=O)N(*)C9=O)cc7)cc6)cc5C4=O)cc3)c2)cc1` (repeat unit) gave a glass transition temperature of 194.00 °C. `*CC(=O)Nc1ccc(Oc2ccc(Oc3ccc(NC(=O)CN4C(=O)c5ccc(C(=O)c6ccc7c(c6)C(=O)N(*)C7=O)cc5C4=O)cc3)cc2)cc1` (repeat unit) gave a glass transition temperature of 230.00 °C. For `*c1cccc(-n2c(=O)c3cc4c(=O)n(*)c(=O)c4cc3c2=O)c1` (repeat unit), the glass transition temperature was 430.00 °C. Molecule `*c1ccc(-c2ccc(-n3c(=O)c4cc5c(=O)n(*)c(=O)c5cc4c3=O)cc2C)c(C)c1` (repeat unit) has a glass transition temperature of 369.2 ± 6.7 °C. In the case of `*c1ccc(C(=O)Nc2ccc(-n3c(=O)c4cc5c(=O)n(*)c(=O)c5cc4c3=O)cc2C(=O)OCC)cc1` (repeat unit), the glass transition temperature is reported as 340.00 °C. With `*/C=C/c1cc(OCCCC)c(*)cc1OC` (repeat unit) the glass transition temperature was 65.00 °C. `*CC(*)(F)C(=O)OCC(F)(F)C(F)(F)C(F)(F)C(F)F` (repeat unit) showed a glass transition temperature of 60.00 °C. `*Oc1ccc(/N=C(\c2ccccc2)c2ccc(Oc3ccc(C(C)(C)c4ccc(Oc5ccc(/C(=N/c6ccc(*)cc6)c6ccccc6)cc5)cc4)cc3)cc2)cc1` (repeat unit) showed a glass transition temperature of 155.00 °C. `*CCCOC(=O)c1ccc2cc(C(=O)O*)ccc2c1` (repeat unit) gave a glass transition temperature of 88.00 °C. With `*Oc1ccc(C(C)(c2ccccc2)c2ccc(OC(*)=S)cc2)cc1` (repeat unit) the glass transition temperature was 181.00 °C.
